System: 6-OHDA-lesioned rats
Test: Assessment of activity in 6-OHDA-lesioned rats (induction of rotational activity)
Assay type: in vivo, rat
Details: p.o., 63.4 μmole/kg, after benserazide 10 mg/kg; rotations over 4 hours; male Wistar rats

For `CC(C)CC(=O)Oc1ccc(C[C@H](N)C(N)=O)cc1OC(=O)CC(C)C.Cl` [Example 5, (S)-2-[3,4-Bis-(3-methylbutyryloxy)-phenyl]-1-carbamoylethylammonium chloride], the “Duration of activity as % of that of L-Dopa” value was 71%, the “Peak activity as % of that of L-Dopa” value was 118% and the “Total activity (AUC activity, area under the locomotor-activity/time curve) as % of that of L-Dopa” value was 89%.

Reference: patent US20090239941A1, “AMINO ACID DERIVATIVES” (PROXIMAGEN LTD., priority 2006, published 2009)
